Where two headings read alike, the source gives them in different places.
What was measured:
[1] = test system: primary neuronal cultures treated with 5 mM HCA; experiment: Glutathione depletion (HCA) model, MTT viability; format: cell-based, rat; details: for concentration at which neuroprotection begins: glutathione depletion model, Fig. 5; for EC50: Rattus norvegicus, results not shown, read-out: EC50 of protection in glutathione depletion model
Procedure: Primary neuronal cultures were prepared from the forebrains of Sprague-Dawley rat embryos (E17) and plated on 96 well plates at a 10^6 cells/ml density. After 24 hours, cells were rinsed with warm PBS and then placed in minimum Essential Medium (MEM; Life Technologies, Grand Island, NY) containing 5 mM HCA in the presence of a compound of interest at varied concentrations. Cells were incubated for 24 h or longer to see 90% cell death in HCA treated controls. Viability was assessed by the MTT (4,5-dimethylthiazol-2-yl)-2,5-diphenyltetrazolium bromide) assay.

[2] = test system: HRE-luciferase reporter (HT22 hippocampal cell line); experiment: HRE-luc reporter assay; format: cell-based; details: for fold induction at 10 µM: Mus musculus, HT-22, 3 h, read-out: HRE-luc fold activation; for fold induction at 10 µM / HRE-luc fold activation: at 10 µM
Text: A promoter-reporter construct that contained 68 bp of a known hypoxia and HIF-1 regulated gene, enolase, containing a wild type hypoxia response element (HRE, 5’-RCTGT-3’), is a widely used approach for screening for HIF activators of different mechanism of action. A cell-based assay with HRE-luciferase reporter system is based on transfected immortalized hippocampal cell line (HT22) and allows screening for a broad spectrum of compounds that include: activators of HIF transcription; activators of HIF binding to HRE; and effectors of HIF protein stability (PHD inhibitors, pVHL & proteasome inhibitors). The assay was performed the same way as for HIF ODD-luc reporter except the cells were plated at the density of 10,000 cell per well and incubated overnight.

[3] = set-up: method as in PMID 17112238; details: cited from earlier work
[4] = test system: HIF1 ODD-luc reporter (SH-SY5Y cell line); experiment: HIF1 ODD-luc reporter assay; format: cell-based; details: for fold induction at 10 µM / EC50: Homo sapiens, SH-SY5Y; for fold induction at 10 µM: 3 h, read-out: ODD-luc fold activation; for fold induction at 10 µM / ODD-luc fold activation: 3 h incubation, at 10 µM
Procedure: (§1) SH-SY5Y cell lines stably expressing HIF1 ODD-luc or Neh2-luc reporters were grown in the DMEM/F12 supplemented with GlutaMAX (Thermo Fisher Scientific) containing 10% FBS, 100 U/ml penicillin, and 100 μg/ml streptomycin and plated into 384-well white flat-bottom plates at 7,000 cell/well in 30 µl serum and incubated overnight at 37°C, 5% CO2. The next day compounds were added to a final concentration of 10 µM and the plates were incubated for 3 hours at 37°C. Reporter activation after 3 h incubation with the studied compound was compared to that for ciclopirox (HIF1 ODD-luc reporter) or TBHQ (Neh2-luc reporter), taken as 100%. Luciferase reporter activity was measured with a SteadyGlo reagent from Promega providing stable reading for 1 h.
(§2) Cells were plated at the density of 25,000 cell per well using a WellMate multichannel dispenser from Matrix (Thermo Fisher Scientific, Waltham, MA) and grown overnight on DMEM/F12+GlutaMAX (100 µl per well). Then an inhibitor was added, and the plates were incubated for a fixed time interval; the medium was removed, cells lysed, and luciferase activity was measured on a SpectraMax M5e platereader (Molecular Devices, Sunnyvale, CA) with BrightGlo™ reagent (Promega, Madison, WI). The reporter activation was normalized to the background luminescence. The effect of 0.5 mM N-acetylcysteine (NAC) was studied by simultaneous addition of 5 µL of 10 mM stock of NAC in water and 2 µL of 50x stock solutions of a flavonoid in DMSO.

[5] = Iron binding constant, calcein displacement assay; format: physicochemical; details: calcein displacement
Text: Calcein displacement assay in the presence of varied concentrations of flavonoids and catechols has been used. Calcein release from its complex with iron was monitored by fluorescence as described in [26].

[6] = Non-enzymatic ferricyanide reduction rate constant; format: physicochemical; details: 1 mM ferricyanide, pH 7.0
Procedure: The rate of ferricyanide reduction by individual flavonoids was measured spectrophotometrically at 420 nm with the fixed concentration of ferricyanide (1 mM) and varied concentrations of a flavonoid in Potassium-phosphate buffer, pH 7.0. The rate constant for direct ferricyanide reduction was calculated from the slope of the dependence reaction rate vs flavonoid concentration and used as a measure of flavonoid non-specific reducing power.

[7] = test system: Neh2-luc reporter (SH-SY5Y cell line); experiment: Neh2-luc reporter assay; format: cell-based; details: for EC50: Neh2-luc; for fold induction at 10 µM / Neh2-luc fold activation: 3 h incubation, at 10 µM; for fold induction at 10 µM: read-out: Neh2-luc fold activation; for effect of NAC on Neh2-luc reporter activation: simultaneous addition of 0.5 mM NAC, results not shown
Procedure: as §1, §2

[8] = target: T1, Rabbit Reticulocyte 15-LOX-1 (Oryctolagus cuniculus, UniProt P12530); experiment: Rabbit LOX 12/15 (rabbit reticulocyte 15-LOX-1) activity; format: biochemical; details: compounds at 25 µM, Fig. 4A
T1 sequence (P12530 1-663): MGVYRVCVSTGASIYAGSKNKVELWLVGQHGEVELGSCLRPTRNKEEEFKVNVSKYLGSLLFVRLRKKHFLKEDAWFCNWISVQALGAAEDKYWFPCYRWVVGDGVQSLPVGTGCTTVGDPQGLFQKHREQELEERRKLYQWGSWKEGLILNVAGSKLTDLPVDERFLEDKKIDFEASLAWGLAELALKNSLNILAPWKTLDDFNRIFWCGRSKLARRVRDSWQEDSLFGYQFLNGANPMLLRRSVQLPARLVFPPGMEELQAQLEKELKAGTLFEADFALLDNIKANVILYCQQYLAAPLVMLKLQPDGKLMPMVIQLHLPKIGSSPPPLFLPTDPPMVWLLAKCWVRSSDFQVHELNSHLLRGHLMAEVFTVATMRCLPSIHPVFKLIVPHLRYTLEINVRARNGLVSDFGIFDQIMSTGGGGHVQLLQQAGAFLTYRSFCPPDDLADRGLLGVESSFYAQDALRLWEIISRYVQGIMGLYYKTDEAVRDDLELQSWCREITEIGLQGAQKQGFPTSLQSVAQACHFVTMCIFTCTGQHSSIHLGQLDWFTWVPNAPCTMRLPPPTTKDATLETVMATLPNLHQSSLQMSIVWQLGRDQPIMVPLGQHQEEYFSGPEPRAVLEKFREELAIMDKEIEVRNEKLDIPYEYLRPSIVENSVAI
Procedure: The activity of the purified enzyme was measured in the end-point in vitro assay of arachidonic acid oxidation following the formation of fluorescent diphenyl-1-pyrenylphosphine oxide. DMSO was used as a control.

[9] = test system: rotenone-induced hemiparkinsonian rats; set-up: method as in PMID 23357119; details: 25-75 mg/kg twice a day for 4 days; cited from earlier work
HIF PHD2 = details: cited from earlier work
[10] = test system: VEGF mRNA in immature primary cortical neurons; experiment: VEGF mRNA induction, real-time RT-PCR; format: cell-based; details: overnight pretreatment, Fig. 4B
Procedure: For VEGF gene expression studies, total RNA was isolated from immature primary cortical neurons, pretreated overnight with the indicated concentration of a bioactive compound, using the NucleoSpin RNA II kit (Macherey-Nagel, Bethlehem, PA) according to manufacturer’s protocol. Real-time PCR was performed in triplicate as a duplex reaction using a VEGF (Mm01281449_m1) gene expression assay with a 6-carboxyfluorescein-labeled probe, and a β actin gene expression assay with a VIC-labeled probe (Applied Biosystems, Foster City, CA), so that gene amplification could be normalized to β actin. These experiments were performed using a 7500 Real-time PCR System (Applied Biosystems) using standard PCR protocol and amplification conditions.

HIF prolyl hydroxylase = target: HIF prolyl hydroxylase; set-up: method as in PMID 3011801; details: enzyme in vitro assay; read-out: enzyme inhibition constant; cited from earlier work

Row | Structure (SMILES) | concentration at which neuroprotection begins [1] [µM] | fold induction at 10 µM [2] | EHOMO [3] [eV] | fold induction at 10 µM [4] | Iron complex Diss. Const [5] [µM] | FC red Rate Const [6] [M⁻¹ s⁻¹] | EC50 ([7]; Homo sapiens, SH-SY5Y) [µM] | fold induction at 10 µM ([7]; Homo sapiens, SH-SY5Y) | ODD-luc fold activation [4] | Neh2-luc fold activation [7] | further results
1 | O=c1c(O)c(-c2ccc(O)c(O)c2)oc2cc(O)ccc12 [compound 10, Fisetin] | 2.5 | 2 ± 0.2 | -8.69 | 1.6 ± 0.2 | 2.7 ± 0.3 | 301000 ± 34000 | 2 | 23 ± 3 |  |  | effect of NAC on Neh2-luc reporter activation [7]: no effect; LOX inhibition [8]: equipotent as LOX inhibitors
2 | O=c1c(O)c(-c2ccc(O)c(O)c2)oc2cc(O)cc(O)c12 [compound 11, Quercetin] |  | 2 ± 0.2 | -8.72 | 1.5 ± 0.2 | 2.7 ± 0.3 | 366000 ± 39000 | 2 | 24 ± 3 |  |  | EC50 [4]: ~2.5 µM; effect of NAC on Neh2-luc reporter activation [7]: no effect; neuroprotection in rotenone model [9]: neuroprotective; Ki (HIF PHD2; read-out: HIF PHD2 apparent inhibition constant): 10 µM
3 | O=c1cc(-c2ccccc2)oc2cc(O)c(O)c(O)c12 [compound 17, Baicalein] |  | 5 ± 0.6 | -8.99 |  | 2.5 ± 0.3 | 25500 ± 3000 |  |  | Inactive | Inactive | Ki (HIF PHD2; competitive with α-KG, read-out: PHD2 Ki): 7 µM
4 | O=c1cc(-c2ccc(O)c(O)c2)oc2cc(O)cc(O)c12 [compound 18, Luteolin] | 1.2 | 2 ± 0.25 | -9.09 | 2.5 ± 0.3 | 3.5 ± 0.4 | 130000 ± 15000 | 2 | 5 ± 0.6 |  |  | LOX inhibition [8]: equipotent as LOX inhibitors
5 | O=c1cc(-c2ccc(O)c(O)c2)oc2ccccc12 [compound 19, 3’,4’-dihydroxyflavone] |  | 2 ± 0.25 |  | 2.5 ± 0.3 | 2.5 ± 0.3 |  | 2 | 15 ± 2 |  |  | Induction of VEGF mRNA [10]: mild inducers
6 | O=c1c(-c2ccc(O)c(O)c2)coc2cc(O)ccc12 [compound 27, 3’-Hydroxy-daidzein] | 2.5 |  |  |  | 3.5 ± 0.4 |  |  |  | 2.5±0.3 fold | 15±2 fold | neuroprotection in glutathione depletion model [1]: protective; HRE-luc fold activation [2]: 2.5±0.3 fold; EC50 [7]: 5 µM; Neh2-luc fold activation ([7]; listed as 3’-hydroxydaidzein): active
7 | N[C@@H](Cc1ccc(O)c(O)c1)C(=O)O [compound 29, 3,4-Dihydroxy-L-phenylalanine, reference compound] |  | 1.7 ± 0.2 |  | 2 ± 0.25 | 2.5 ± 0.3 |  | 20 |  |  | Inactive | EC50 [1]: 6 µM; EC50 [4]: 15 µM
8 | C[C@@](Cc1ccc(O)c(O)c1)(NN)C(=O)O [compound 31, N-Aminomethyldopa, reference compound] |  |  |  |  | 2.5 ± 0.3 |  | 20 |  | Inactive | Inactive | EC50 [1]: > 20 µM; HRE-luc fold activation [2]: Inactive
9 | CCOC(=O)c1ccc(O)c(O)c1 [compound 32, Ethyl 3,4-dihydroxybenzoate, reference compound] |  |  |  |  | 2.5 ± 0.3 |  | 20 |  |  | Inactive | HRE-luc: concentration above which active [2]: Active above 20 µM; Ki (HIF prolyl hydroxylase): 5 µM; ODD-luc: concentration above which active [4]: Active above 50 µM; ODD-luc: concentration above which active ([4]; listed as DHB): above 50 µM

— article PMC5201116, “Bioactive Flavonoids and Catechols as Hif1 and Nrf2 Protein Stabilizers - Implications for Parkinson’s Disease” (Aging and Disease, 2016)
